Experimental data as given in patent US5488060A, “Substituted thiadiazoles, compositions containing them and their use as antimicrobial and marine antifouling agents” (The Dow Chemical Company, priority 1994, dated 1996).
In brackets after ≈: the same amount, converted by molar mass. Read-outs that look alike come from different tables or passages of the source.

Assays:
Type in all cases: cell-based
[1] = test system: Salmonella choleraesuis (Se); experiment: Minimum inhibitory concentration (MIC) in nutrient agar, Salmonella choleraesuis; settings: Salmonella enterica
Experimental: (§1) The antimicrobial activity of the compounds of the present invention is set forth as the minimum inhibitory concentration (MIC) for the active compounds and is determined for nine (9) bacteria, using nutrient agar, and seven (7) yeast and fungi, using malt yeast agar. This determination is conducted using a one percent solution of the test compound prepared in a mixture of acetone and water.
(§2) Nutrient agar is prepared at pH 6.8, representing a neutral medium, and at pH 8.2, representing an alkaline medium. The nutrient agars are prepared by adding 23 g of nutrient agar to one-liter of deionized water. In addition, the alkaline medium is prepared by adjusting a 0.04M solution of N-[tris-(hydroxymethyl)methyl]glycine buffered deionized water with concentrated sodium hydroxide to a pH of 8.5.
(§3) The test tubes containing the agar are cooled in a water bath until the temperature of the agar is 48° C. Then, an appropriate amount of the one percent solution of the test compound is added (except in the controls where no compound is added) to the respective test tubes so that the final concentrations are 500, […], 100, 50, 25, 10, 5, 2.5, 1.0 and zero parts per million of the test compound in the agar, thus having a known concentration of test compound dispersed therein. The contents of the test tubes are then transferred to respective petri plates. After drying for 24 hours, the petri plates containing nutrient agar are inoculated with bacteria and those containing malt yeast agar are inoculated with yeast and fungi.
(§4) The inoculation with bacteria is accomplished by using the following procedure. Twenty-four hour-cultures of each of the bacteria are prepared by incubating the respective bacteria in tubes containing nutrient broth for 24 hours at 30° C. in a shaker. Dilutions of each of the 24 hour-cultures are made so that nine separate suspensions (one for each of the nine test bacteria) are made, each containing 10^8 colony forming units (CFU) per mL of suspension of a particular bacteria. Aliquots of 0.3 mL of each of the bacterial suspensions are used to fill the individual wells of Steer's Replicator. For each microbial suspension, 0.3 mL was used to fill three wells (i.e., three wells of 0.3 mL each) so that for the nine different bacteria, 27 wells are filled. The Steer's Replicator is then used to inoculate both the neutral and alkaline pH nutrient agar petri plates.
(§5) The inoculated petri plates are incubated at 30° C. for 48 hours and then read to determine if the test compound which is incorporated into the agar prevented growth of the respective bacteria.

[2] = test system: Enterobacter aerogenes (Ea); experiment: Minimum inhibitory concentration (MIC) in nutrient agar, Enterobacter aerogenes; settings: Klebsiella aerogenes
Experimental: as §1, §2, §3, §4, §5

[3] = test system: Aureobasidium pullulan (Ap); experiment: Minimum inhibitory concentration (MIC) in malt yeast agar, Aureobasidium pullulan; settings: pH 5.5, read-out: Minimum Inhibitory Concentration, Ap
Experimental: as §1
(§6) Malt yeast agar is prepared at pH 5.5 by adding 3 g yeast extract and 45 g malt agar per liter of deionized water. The specific agar is dispensed in 30 mL aliquots into 25×200 mm test tubes, capped and autoclaved for 15 minutes at 115° C.
as §3
(§7) The inoculation with the yeast and fungi is accomplished as follows. Cultures of yeast and fungi are incubated for seven days on malt yeast agar at 30° C. These cultures are used to prepare suspensions by the following procedure. A suspension of each organism is prepared by adding 10 mL of sterile saline and 10 microliters of octylphenoxy polyethoxy ethanol to the agar slant of yeast or fungi. The sterile saline/octylphenoxy potyethoxy ethanol solution is then agitated with a sterile swab to suspend the microorganism grown on the slant. Each resulting suspension is diluted into sterile saline (1 part suspension: 9 parts sterile saline). Aliquots of these dilutions are placed in individual wells of Steer's Replicator and petri plates inoculated as previously described. The petri plates are incubated at 30° C. and read after 48 hours for yeast and 72 hours for fungi.

Fusarium oxysporum (Fo) = experiment: Minimum inhibitory concentration (MIC) in malt yeast agar, Fusarium oxysporum
Experimental: as §1, §6, §3, §7

Aspergillus niger (An) = experiment: Minimum inhibitory concentration (MIC) in malt yeast agar, Aspergillus niger; settings: pH 5.5; malt yeast agar, 30° C., 72 hours for fungi; read-out: Minimum Inhibitory Concentration, An
Experimental: as §1, §6, §3, §7

[4] = test system: Klebsiella pneumoniae (Kp); experiment: Minimum inhibitory concentration (MIC) in nutrient agar, Klebsiella pneumoniae
Experimental: as §1, §2, §3, §4, §5

Bacillus subtilis (Bs) = experiment: Minimum inhibitory concentration (MIC) in nutrient agar, Bacillus subtilis
Experimental: as §1, §2, §3, §4, §5

[5] = test system: Saccharomyces cerevisiae (Sc); experiment: Minimum inhibitory concentration (MIC) in malt yeast agar, Saccharomyces cerevisiae; settings: pH 5.5, malt yeast agar, 30° C., 48 hours for yeast, read-out: Minimum Inhibitory Concentration, SC
Experimental: as §1, §6, §3, §7

Candida albicans (Ca) = experiment: Minimum inhibitory concentration (MIC) in malt yeast agar, Candida albicans
Experimental: as §1, §6, §3, §7

Escherichia coli (Ec) = experiment: Minimum inhibitory concentration (MIC) in nutrient agar, Escherichia coli
Experimental: as §1, §2, §3, §4, §5

Proteus vulgaris (Pv) = experiment: Minimum inhibitory concentration (MIC) in nutrient agar, Proteus vulgaris
Experimental: as §1, §2, §3, §4, §5

[6] = test system: Pseudomonas aeruginosa (Pa); experiment: Minimum inhibitory concentration (MIC) in nutrient agar, Pseudomonas aeruginosa
Experimental: as §1, §2, §3, §4, §5

[7] = test system: Staphylococcus aureus (Sa); experiment: Minimum inhibitory concentration (MIC) in nutrient agar, Staphylococcus aureus
Experimental: as §1, §2, §3, §4, §5

[8] = test system: Pseudomonas aeruginosa (PRD-10); experiment: Minimum inhibitory concentration (MIC) in nutrient agar, Pseudomonas aeruginosa PRD-10; settings: 48 h
Experimental: as §1, §2, §3, §4, §5

Trichoderma viride (Tv) = experiment: Minimum inhibitory concentration (MIC) in malt yeast agar, Trichoderma viride; settings: pH 5.5; malt yeast agar, 30° C., 72 hours for fungi; read-out: Minimum Inhibitory Concentration, Tv
Experimental: as §1, §6, §3, §7

[9] = test system: Penicillium chrysogenum (Pc); experiment: Minimum inhibitory concentration (MIC) in malt yeast agar, Penicillium chrysogenum; settings: pH 5.5; malt yeast agar, 30° C., 72 hours for fungi; read-out: Minimum Inhibitory Concentration, PC
Experimental: as §1, §6, §3, §7

[10] = 48 h, pH 8.2, read-out: Minimum Inhibitory Concentration, SC
[11] = 48 h, pH 8.2, read-out: Minimum Inhibitory Concentration, Ea
[12] = 48 h, pH 8.2, read-out: Minimum Inhibitory Concentration, Kp
[13] = pH 6.8, nutrient agar, 30° C., 48 hours, read-out: Minimum Inhibitory Concentration, Kp
[14] = pH 6.8, nutrient agar, 30° C., 48 hours, read-out: Minimum Inhibitory Concentration, Bs
[15] = 48 h, pH 5.5, read-out: Minimum Inhibitory Concentration, Ca
[16] = 48 h, pH 8.2, read-out: Minimum Inhibitory Concentration, Ec
[17] = 48 h, pH 8.2, read-out: Minimum Inhibitory Concentration, Pv
[18] = pH 6.8, nutrient agar, 30° C., 48 hours, read-out: Minimum Inhibitory Concentration, Pa
[19] = pH 6.8, read-out: Minimum Inhibitory Concentration, PRD
[20] = pH 8.2, read-out: Minimum Inhibitory Concentration, PRD
[21] = 48 h, pH 6.8, read-out: Minimum Inhibitory Concentration, SC
[22] = 48 h, pH 6.8, read-out: Minimum Inhibitory Concentration, Ea
[23] = 48 h, pH 8.2, read-out: Minimum Inhibitory Concentration, Bs
[24] = 48 h, pH 6.8, read-out: Minimum Inhibitory Concentration, Ec
[25] = 48 h, pH 6.8, read-out: Minimum Inhibitory Concentration, Pv
[26] = pH 8.2, nutrient agar, 30° C., 48 hours, read-out: Minimum Inhibitory Concentration, Pa
[27] = 48 h, pH 8.2, read-out: Minimum Inhibitory Concentration, Sa
[28] = pH 6.8, nutrient agar, 30° C., 48 hours, read-out: Minimum Inhibitory Concentration, Sa

N#CSc1nsnc1-c1cccnc1 [Example XV, 4-(3-Pyridyl)-3-thiocyanato-1,2,5-thiadiazole]
MIC [1, 10]: 500 µg/mL (≈ 2270 µM)
MIC ([1]; pH 6.8, nutrient agar, 30° C., 48 hours, read-out: Minimum Inhibitory Concentration, SC): 250 µg/mL (≈ 1130 µM)
MIC [2, 11]: 500 µg/mL (≈ 2270 µM)
MIC ([2]; pH 6.8, nutrient agar, 30° C., 48 hours, read-out: Minimum Inhibitory Concentration, Ea): 250 µg/mL (≈ 1130 µM)
MIC [3]: 50 µg/mL (≈ 227 µM)
MIC (Fusarium oxysporum (Fo); 72 h, pH 5.5, read-out: Minimum Inhibitory Concentration, Fo): 50 µg/mL (≈ 227 µM)
MIC (Aspergillus niger (An)): 100 µg/mL (≈ 454 µM)
MIC [4, 12]: 500 µg/mL (≈ 2270 µM)
MIC [4, 13]: 100 µg/mL (≈ 454 µM)
MIC (Bacillus subtilis (Bs); [14]): 25 µg/mL (≈ 113 µM)
MIC (Bacillus subtilis (Bs); pH 8.2, nutrient agar, 30° C., 48 hours, read-out: Minimum Inhibitory Concentration, Bs): 100 µg/mL (≈ 454 µM)
MIC [5]: 50 µg/mL (≈ 227 µM)
MIC (Candida albicans (Ca); [15]): 100 µg/mL (≈ 454 µM)
MIC (Escherichia coli (Ec); [16]): 500 µg/mL (≈ 2270 µM)
MIC (Escherichia coli (Ec); pH 6.8, nutrient agar, 30° C., 48 hours, read-out: Minimum Inhibitory Concentration, Ec): 250 µg/mL (≈ 1130 µM)
MIC (Proteus vulgaris (Pv); [17]): 500 µg/mL (≈ 2270 µM)
MIC (Proteus vulgaris (Pv); pH 6.8, nutrient agar, 30° C., 48 hours, read-out: Minimum Inhibitory Concentration, Pv): 100 µg/mL (≈ 454 µM)
MIC ([6]; 48 h, pH 8.2, read-out: Minimum Inhibitory Concentration, Pa): 500 µg/mL (≈ 2270 µM)
MIC [6, 18]: 500 µg/mL (≈ 2270 µM)
MIC ([7]; 48 h, pH 6.8, read-out: Minimum Inhibitory Concentration, Sa): 50 µg/mL (≈ 227 µM)
MIC [8, 19]: 500 µg/mL (≈ 2270 µM)
MIC [8, 20]: 500 µg/mL (≈ 2270 µM)

COC(=O)c1ccc(-c2nsnc2SCSC#N)cc1 [Example XXVIII]
MIC [1, 21]: 500 µg/mL (≈ 1550 µM)
MIC [1, 10]: > 500 µg/mL
MIC [2, 22]: 500 µg/mL (≈ 1550 µM)
MIC [2, 11]: > 500 µg/mL
MIC [3]: 50 µg/mL (≈ 155 µM)
MIC (Fusarium oxysporum (Fo); pH 5.5, malt yeast agar, 30° C., 72 hours for fungi, read-out: Minimum Inhibitory Concentration, Fo): 250 µg/mL (≈ 773 µM)
MIC (Aspergillus niger (An)): 100 µg/mL (≈ 309 µM)
MIC [4, 12]: > 500 µg/mL
MIC [4, 13]: 500 µg/mL (≈ 1550 µM)
MIC (Bacillus subtilis (Bs); 48 h, pH 6.8, read-out: Minimum Inhibitory Concentration, Bs): 500 µg/mL (≈ 1550 µM)
MIC (Bacillus subtilis (Bs); [23]): 500 µg/mL (≈ 1550 µM)
MIC [5]: 250 µg/mL (≈ 773 µM)
MIC (Candida albicans (Ca); pH 5.5, malt yeast agar, 30° C., 48 hours for yeast, read-out: Minimum Inhibitory Concentration, Ca): 500 µg/mL (≈ 1550 µM)
MIC (Escherichia coli (Ec); [24]): 500 µg/mL (≈ 1550 µM)
MIC (Escherichia coli (Ec); [16]): 500 µg/mL (≈ 1550 µM)
MIC (Proteus vulgaris (Pv); [25]): 500 µg/mL (≈ 1550 µM)
MIC (Proteus vulgaris (Pv); [17]): > 500 µg/mL
MIC [6, 18]: 500 µg/mL (≈ 1550 µM)
MIC [6, 26]: > 500 µg/mL
MIC [7, 27]: 500 µg/mL (≈ 1550 µM)
MIC [7, 28]: 500 µg/mL (≈ 1550 µM)
MIC [8, 19]: 500 µg/mL (≈ 1550 µM)
MIC [8, 20]: > 500 µg/mL
MIC (Trichoderma viride (Tv)): > 500 µg/mL

COc1cccc(-c2nsnc2SC#N)c1 [Example VII, a-(3-Methoxyphenyl)-3-thiocyanato-1,2,5-thiadiazole]
MIC [1, 21]: > 500 µg/mL
MIC [1, 10]: 500 µg/mL (≈ 2010 µM)
MIC [2, 22]: > 500 µg/mL
MIC [2, 11]: 500 µg/mL (≈ 2010 µM)
MIC [3]: 5 µg/mL (≈ 20.1 µM)
MIC (Aspergillus niger (An)): 10 µg/mL (≈ 40.1 µM)
MIC [4, 12]: 500 µg/mL (≈ 2010 µM)
MIC [4, 13]: > 500 µg/mL
MIC [9]: 25 µg/mL (≈ 100 µM)
MIC (Bacillus subtilis (Bs); [23]): 250 µg/mL (≈ 1000 µM)
MIC (Bacillus subtilis (Bs); [14]): 25 µg/mL (≈ 100 µM)
MIC [5]: 5 µg/mL (≈ 20.1 µM)
MIC (Candida albicans (Ca); [15]): 50 µg/mL (≈ 201 µM)
MIC (Escherichia coli (Ec); [24]): > 500 µg/mL
MIC (Escherichia coli (Ec); [16]): 500 µg/mL (≈ 2010 µM)
MIC (Proteus vulgaris (Pv); [25]): > 500 µg/mL
MIC (Proteus vulgaris (Pv); [17]): 500 µg/mL (≈ 2010 µM)
MIC [6, 18]: > 500 µg/mL
MIC [6, 26]: 500 µg/mL (≈ 2010 µM)
MIC [7, 27]: 500 µg/mL (≈ 2010 µM)
MIC [7, 28]: 250 µg/mL (≈ 1000 µM)
MIC [8, 19]: > 500 µg/mL
MIC [8, 20]: 500 µg/mL (≈ 2010 µM)
MIC (Trichoderma viride (Tv)): 5 µg/mL (≈ 20.1 µM)
